Measurements from US11376264B2, “Use of bromodomain-containing protein 9 antagonists in combination with vitamin D receptor agonists in diabetes treatment” (Salk Institute for Biological Studies, priority 2017, dated 2022).
Entries after “also recorded” stand apart in the source; their conditions may differ.

Legend:
[1] = system: BAF/PBAF complex binding at Nfkbia, Nfkbiz, Camk4; assay: ChIP-qPCR of ARID1B and BAF180 at VDR target loci; assay type: cell-based, rat
From the text: The experimental procedure for ChIP was as previously described (Barish et al., 2010, Genes Dev 24:2760-5). Briefly, after fixation, nuclei from were isolated, lysed, and sheared with a Diagenode Bioruptor to yield DNA fragment sizes of 200-1,000 bp followed by immunoprecipitation.

[2] = In vivo pharmacokinetic study of iBRD9 (plasma, LC-MS); conditions: FIG. 12J, n=3
Experimental: An internal standard of d4-succinate was added to all samples prior to analysis. […] of methanol containing 100 pmol of d4-succinate was added to 50 uL plasma samples and vortexed for 1 min. The samples were then centrifuged at 17.000× g for 10 min at 4° C. After drying the supernatant via SpeedVac, the extract was dissolved in H2O ([…]) and […] was subjected to liquid chromatography mass spectrometry (LC-MS). Compound i-BRD9 was measured using a TSQ Quantiva mass spectrometer (Thermo) and Dionex Ultimate 3000 (Thermo) fitted with a Gemini C18 HPLC column ([…]; 4.6 mm×50 mm, Phenomenex). LC solvents used were: solvent A, 0.1% formic acid in water; solvent B, 0.1% formic acid in acetonitrile. Separations took place over 16 min with a flow rate of 0.4 mL/min and consisted of the following steps: 5 to 50% solvent B over 9 min, 50 to 80% B over 1 min, 80% B for 1 min, 80 to 5% B over 0.1 min, and 5% B for 5 min. MS analyses were performed using electrospray ionization (ESI) in positive ion mode for i-BRD9 and negative ion mode for d4-succinate. Positive and negative mode source parameters were as follows: spray voltage 3.5 kV, ion transfer tube temperature of 325° C., and a vaporizer temperature of 275° C. Multiple reaction monitoring transitions for target compound and internal standard are shown in (Table 2).

human islets [3] = assay: Human islets under cytokine stress, transmission electron microscopy; assay type: cell-based; conditions: 24 hours
Experimental: (§1) Mouse pancreatic islets were isolated as previously described (Yoshihara et al., 2010, Nat. Commun 1:127) with slight modification. Briefly, 0.5 mg/ml collagenase P (Roche REF 1213873001, diluted in HBSS buffer, GIBCO, 14170-112) was injected through the common bile duct, and the perfused pancreas dissected and incubated at 37° C. for 21 min. Digested exocrine cells and intact islets were separated via centrifugation (900×g for 15 min) over Histopaque-1077 (Sigma, H8889), and intact islets were manually selected. Human islets were provided by the Integrated Islets Distribution Program (see details below).
Islets in suspension were pelleted in 2% low melting point agarose and subsequently fixed in 2.5% glutaraldehyde with 2% paraformaldehyde in 0.15M cacodylate buffer containing 2 mM calcium chloride, pH 7.4, for one hour at 4° C. The pellet was trimmed down to contain the minimal amount of agarose possible, washed in buffer, and secondarily fixed in 1% osmium tetroxide/0.3% potassium ferrocyanide in buffer. Subsequently, the pellet was washed in water and en bloc stained with 2% uranyl acetate followed by a graded dehydration in ethanol (35%, 50%, 70%, 90%, 100%, 100%). […]

human islets [4] = assay: Long term ex vivo human islet cultures; assay type: cell-based; conditions: for insulin secretion: 1 week; for islet survival (cell numbers): 4 weeks
Experimental: as §1

mouse islets = assay: Isolated mouse islets cultured with IL1β ± Cal (RNA-Seq); assay type: cell-based
Experimental: Total RNA was isolated from tissue or cell pellets using the RNA mini kit (Qiagen). Sequencing libraries were prepared from 100-500 ng total RNA using the TruSeq RNA Sample Preparation Kit v2 (Illumina) according to the manufacturer's protocol. Briefly, mRNA was purified, fragmented, and used for first-, then second-strand cDNA synthesis followed by adenylation of 3′ ends. Samples were ligated to unique adapters and subjected to PCR amplification. Libraries were then validated using the 2100 BioAnalyzer (Agilent), normalized, and pooled for sequencing. RNA-Seq libraries prepared from two biological replicates for each experimental condition were sequenced on the Illumina HiSeq 2000 using bar-coded multiplexing and a 100 bp read length.
Image analysis and base calling were performed with Illumina CASAVA-1.8.2. This yielded a median of 29.9M usable reads per sample. Short read sequences were mapped to a UCSC mm9 reference sequence using the RNA-seq aligner STAR (Dobin et al., 2013). Known splice junctions from mm9 were supplied to the aligner and de novo junction discovery was also permitted. Differential gene expression analysis, statistical testing and annotation were performed using Cuffdiff 2 (Trapnell et al., 2013). Transcript expression was calculated as gene-level relative abundance in fragments per kilobase of exon model per million mapped fragments and employed correction for transcript abundance bias (Roberts et al., 2011). RNA-Seq results for genes of interest were also explored visually using the UCSC Genome Browser.
as §1, with “Human islets were provided by the Integrated Islets Distribution Program (see details below).” left out

INS1 cells = assay: Thapsigargin or tunicamycin-induced ER stress in INS1 cells (p-PERK Western); assay type: cell-based, rat; conditions: Cal pre-treated 1 hour, stressor overnight
Nfkbia (IκBα) = assay: Nfkbia expression in IL1β-stressed INS1 cells (qPCR); assay type: cell-based, rat
Experimental: Samples were run in triplicate and expression was normalized to the levels of the housekeeping controls Rplp0 (36b4) for human and mouse. Samples were analyzed by qPCR, using SYBR Green dye (Bio-rad). Statistical comparisons were made using Student's t test. Error bars are mean±SEM. Primers used are shown below: INS1 cells were cultured at 37° C. in 5% C02 in air in RPMI-1640 (Sigma Aldrich) supplemented with 10% (v/v) fetal bovine serum, 1% (v/v) Antibiotic-Antimycotic (Gibco) 10 mM HEPES, 2 mM glutamax, 1 mM sodium pyruvate, and 50 μM β-mercaptoethanol (RPMI for INS1 medium). INS1 cells were transfected with Lipofectamine RNAiMAX (Invitrogen) for 24 hr, […] (VDR: L-097753-02-0005, PCAF: L-085879-02-0005, BAF180: L-088113-02-0005, non-targeting pool: D-001810-10-05).

SMILES: CCn1cc(-c2cccc(C(F)(F)F)c2)c2sc(C(=N)NC3CCS(=O)(=O)CC3)cc2c1=O [iBRD9]
- ARID1B (BAF complex) binding at target gene loci [1]: reduces BAF complex binding
- BAF180 (PBAF complex) binding at target gene loci [1]: increases PBAF complex binding
- maximum plasma iBRD9 concentration [2]: ~750 nM

SMILES: C=C1/C(=C\C=C2/CCC[C@]3(C)[C@@H]([C@H](C)/C=C/[C@@H](O)C4CC4)CC[C@@H]23)C[C@@H](O)C[C@@H]1O [Cal, calcipotriol]
- cytokine-induced morphological degeneration (insulin granules, ER) (human islets [3]): partially rescues the morphological degeneration
- insulin secretion (human islets [4]): increased
- insulin secretion (human islets [4]; listed as Calcipotriol): Increases
- islet survival (cell numbers) (human islets [4]): increased
- islet survival (cell numbers) (human islets [4]; listed as Calcipotriol): Increases
- IL1β-induced damage / gene expression changes in islets (mouse islets; 48 or 96 hours): protected islets from IL1β-induced damage; also recorded: partially rescued
- number of genes induced by IL1β and rescued (mouse islets; 96 hours): 332 genes
- number of genes suppressed by IL1β and rescued (mouse islets; 96 hours): 169 genes
- ER stress (p-PERK) (INS1 cells): attenuated
- Nfkbia expression (Nfkbia (IκBα); 30 minutes IL1β exposure): increased
- Nfkbia expression (Nfkbia (IκBα); IL1β stress, after 24 hrs): not sufficient to induce a significant increase
